# Measured values: ChEMBL document CHEMBL1136214, “Indole-based heterocyclic inhibitors of p38alpha MAP kinase: designing a conformationally restricted analogue” (Bioorg Med Chem Lett, 2003)
# pIC50: −log10 of the molar value.
# Target: Mitogen-activated protein kinase 14 (Homo sapiens, UniProt Q16539)
# Test: Inhibition of Mitogen-activated protein kinase p38 alpha
# Mitogen-activated protein kinase 14, sequence (Q16539 whole entry): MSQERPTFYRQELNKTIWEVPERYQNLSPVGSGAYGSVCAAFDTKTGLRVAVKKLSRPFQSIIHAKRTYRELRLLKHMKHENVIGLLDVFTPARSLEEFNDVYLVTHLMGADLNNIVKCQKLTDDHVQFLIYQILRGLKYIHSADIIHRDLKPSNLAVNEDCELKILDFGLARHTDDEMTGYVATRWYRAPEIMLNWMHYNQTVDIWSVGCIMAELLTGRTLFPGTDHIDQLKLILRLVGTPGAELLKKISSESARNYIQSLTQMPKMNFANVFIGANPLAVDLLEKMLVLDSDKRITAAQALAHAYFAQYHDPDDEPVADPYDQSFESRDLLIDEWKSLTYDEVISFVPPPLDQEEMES
row,Structure (SMILES),pIC50
1,O=C(c1cccc2cc[nH]c12)N1CCN(Cc2ccccc2)CC1,< 4.52
2,C[C@@H]1CN(Cc2ccccc2)[C@@H](C)CN1C(=O)c1ccc2[nH]ccc2c1,5.89
3,COc1cc2[nH]ccc2cc1C(=O)N1C[C@@H](C)N(Cc2ccccc2)C[C@@H]1C,5.78

# Stronger by pIC50, values ahead:
row,pIC50,Structure (SMILES)
1,6.02,COc1cc2[nH]ccc2cc1C(=O)N1CCN(Cc2ccccc2)CC1
2,7.15,COc1cc2[nH]ccc2cc1C(=O)N1C[C@H](C)N(Cc2ccccc2)C[C@H]1C (racemic)
3,7.70,COc1cc2[nH]ccc2cc1C(=O)N1C[C@H](C)N(Cc2ccccc2)C[C@H]1C
